tested on: apyrase; assay: Screen for apyrase inhibitors (Method 1, in vitro phosphate-release absorbance assay); assay type: biochemical; settings: inhibitor conc at 1 mM stock, 1 hr room temperature, absorbance 630 nm; rounded average of two assay results
In short: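 Phosphate-release colorimetric assay (Windsor method) in 60 mM Hepes, 3 mM MgCl2, 3 mM CaCl2, 3 mM ATP, pH 6.5, with compound or DMSO control added. Released phosphate developed with ammonium molybdate and ascorbic acid/TCA, then stopped with citrate/acetic acid.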

Structure (SMILES)	% Inhibition of Apyrase
Cc1ccccc1NS(=O)(=O)c1cc(C(=O)Nc2cccc([N+](=O)[O-])c2)ccc1Cl [I-2, 4-chloro-N-(3-nitrophenyl)-3-(N-(o-tolyl)sulfamoyl)benzamide]	77%
N#Cc1cccc(NC(=O)c2cccc(S(=O)(=O)Nc3ccc(Br)cc3)c2)c1 [I-16, 3-(N-(4-bromophenyl)sulfamoyl)-N-(3-cyanophenyl)benzamide]	54%
COc1ccc(NC(=O)c2cccc(S(=O)(=O)Nc3ccc(Br)cc3)c2)cc1 [I-18, 3-(N-(4-bromophenyl)sulfamoyl)-N-(4-methoxyphenyl)benzamide]	51%
O=C(Nc1ccc(Br)cc1)c1cccc(S(=O)(=O)Nc2cc(C(F)(F)F)ccc2Cl)c1 [I-178, N-(4-bromophenyl)-3-(N-(2-chloro-5-(trifluoromethyl)phenyl)sulfamoyl)benzamide]	76%
O=C(Nc1cccc(Br)c1)c1cccc(S(=O)(=O)Nc2ccc3c(c2)OCO3)c1 [I-186, 3-(N-(benzo[d][1,3]dioxol-5-yl)sulfamoyl)-N-(3-bromophenyl)benzamide]	72%
O=C(Nc1ccc(S(=O)(=O)Nc2cccc(C(F)(F)F)c2)cc1)c1ccc(F)cc1Cl [I-977, 2-chloro-4-fluoro-N-(4-(N-(3-(trifluoromethyl)phenyl)sulfamoyl)phenyl) benzamide]	59%
COc1ccccc1C(=O)Nc1ccc(S(=O)(=O)Nc2ccc(Cl)cc2)cc1 [I-978, N-(4-(N-(4-chlorophenyl)sulfamoyl)phenyl)-2-methoxybenzamide]	59%
O=C(Nc1ccc(S(=O)(=O)Nc2cccc(C(F)(F)F)c2)cc1)c1ccc(Cl)c([N+](=O)[O-])c1 [I-979, 4-chloro-3-nitro-N-(4-(N-(3-(trifluoromethyl)phenyl)sulfamoyl)phenyl) benzamide]	58%
O=C(Nc1ccc(S(=O)(=O)N2CCc3ccccc32)cc1)c1cccc([N+](=O)[O-])c1 [I-980, N-(4-(indolin-1-ylsulfonyl)phenyl)-3-nitrobenzamide]	58%
COc1ccccc1NS(=O)(=O)c1ccc(NC(=O)c2ccc3c(c2)OCCO3)cc1 [I-981, N-(4-(N-(2-methoxyphenyl)sulfamoyl)phenyl)-2,3-dihydrobenzo[b][1,4]dioxine-6-carboxamide]	57%
O=C(Nc1ccc(S(=O)(=O)Nc2ccccc2Cl)cc1)c1ccc(Cl)c(Cl)c1 [I-982, 3,4-dichloro-N-(4-(N-(2-chlorophenyl)sulfamoyl)phenyl)benzamide]	57%
COc1ccccc1NS(=O)(=O)c1ccc(NC(=O)c2ccccc2SCC2CCCO2)cc1 (stereo not shown) [I-985, N-(4-(N-(2-methoxyphenyl)sulfamoyl)phenyl)-2-(((tetrahydrofuran-2-yl)methyl)thio)benzamide]	57%
CCOc1ccc(NS(=O)(=O)c2ccc(NC(=O)c3cccc(OC(F)F)c3)cc2)cc1 [I-986, 3-(difluoromethoxy)-N-(4-(N-(4-ethoxyphenyl)sulfamoyl)phenyl)benzamide]	56%
NS(=O)(=O)c1cc(C(=O)Nc2ccc(S(=O)(=O)Nc3ccc(Cl)cc3)cc2)ccc1Cl [I-987, 4-chloro-N-(4-(N-(4-chlorophenyl)sulfamoyl)phenyl)-3-sulfamoylbenzamide]	55%
COc1ccc(C(=O)Nc2ccc(S(=O)(=O)Nc3ccc(Cl)cc3)cc2)cc1 [I-988, N-(4-(N-(4-chlorophenyl)sulfamoyl)phenyl)-4-methoxybenzamide]	55%
Cc1ccc(NS(=O)(=O)c2ccc(NC(=O)c3cccc(S(C)(=O)=O)c3)cc2)cc1C [I-989, N-(4-(N-(3,4-dimethylphenyl)sulfamoyl)phenyl)-3-(methylsulfonyl)benzamide]	54%
O=C(Nc1ccc(S(=O)(=O)Nc2cccc(Cl)c2)cc1)c1ccc(F)cc1 [I-990, N-(4-(N-(3-chlorophenyl)sulfamoyl)phenyl)-4-fluorobenzamide]	53%
COc1ccc(NS(=O)(=O)c2ccc(NC(=O)c3cccc(S(=O)(=O)N(C)C)c3)cc2)cc1 [I-991, 3-(N,N-dimethylsulfamoyl)-N-(4-(N-(4-methoxyphenyl)sulfamoyl)phenyl)benzamide]	53%

Structure (SMILES)	% Inhibition of Apyrase
COc1ccc(NS(=O)(=O)c2ccc(NC(=O)c3cc(Cl)cc(Cl)c3)cc2)cc1 [I-992, 3,5-dichloro-N-(4-(N-(4-methoxyphenyl)sulfamoyl)phenyl)benzamide]	49%
COc1ccccc1NS(=O)(=O)c1ccc(NC(=O)c2cccc([N+](=O)[O-])c2)cc1 [I-993, N-(4-(N-(2-methoxyphenyl)sulfamoyl)phenyl)-3-nitrobenzamide]	48%
O=C(Nc1ccc(S(=O)(=O)Nc2ccccc2Cl)cc1)c1ccc2c(c1)OCCO2 [I-994, N-(4-(N-(2-chlorophenyl)sulfamoyl)phenyl)-2,3-dihydrobenzo[b][1,4]dioxine-6-carboxamide]	47%
COc1ccccc1C(=O)Nc1ccc(S(=O)(=O)Nc2cccc(Cl)c2)cc1 [I-995, N-(4-(N-(3-chlorophenyl)sulfamoyl)phenyl)-2-methoxybenzamide]	46%
COc1ccc(NS(=O)(=O)c2ccc(NC(=O)c3ccccc3OC(F)F)cc2)cc1OC [I-996, 2-(difluoromethoxy)-N-(4-(N-(3,4-dimethoxyphenyl)sulfamoyl)phenyl)benzamide]	46%
COc1ccccc1NS(=O)(=O)c1ccc(NC(=O)c2cccc(C#N)c2)cc1 [I-997, 3-cyano-N-(4-(N-(2-methoxyphenyl)sulfamoyl)phenyl)benzamide]	43%
O=C(Nc1ccc(S(=O)(=O)Nc2cccc(C(F)(F)F)c2)cc1)c1cccc(F)c1 [I-998, 3-fluoro-N-(4-(N-(3-(trifluoromethyl)phenyl)sulfamoyl)phenyl) benzamide]	34%
COc1ccccc1NS(=O)(=O)c1ccc(NC(=O)c2ccc(C#N)cc2)cc1 [I-999, 4-cyano-N-(4-(N-(2-methoxyphenyl)sulfamoyl)phenyl)benzamide]	29%
O=C(Nc1ccc(S(=O)(=O)Nc2cccc(C(F)(F)F)c2)cc1)c1ccccc1 [I-1000, N-(4-(N-(3-(trifluoromethyl)phenyl)sulfamoyl)phenyl) benzamide]	28%
COc1ccc(NS(=O)(=O)c2ccc(NC(=O)c3ccc(Cl)cc3)cc2)cc1 [I-1001, 4-chloro-N-(4-(N-(4-methoxyphenyl)sulfamoyl)phenyl)benzamide]	16%
COc1ccc(NS(=O)(=O)c2ccc(NC(=O)c3ccc(F)cc3)cc2)cc1 [I-1002, 4-fluoro-N-(4-(N-(4-methoxyphenyl)sulfamoyl)phenyl)benzamide]	3%
Cc1ccnn1-c1ccc(C(=O)Nc2ccc(NS(=O)(=O)c3ccc4c(c3)OCCO4)cc2)cc1 [I-1003, N-(4-((2,3-dihydrobenzo[b][1,4]dioxine)-6-sulfonamido)phenyl)-4-(5-methyl-1H-pyrazol-1-yl)benzamide]	47%
CCOc1ccc(Br)cc1S(=O)(=O)Nc1ccc(NC(=O)c2ccccc2F)cc1 [I-1004, N-(4-((5-bromo-2-ethoxyphenyl)sulfonamido)phenyl)-2-fluorobenzamide]	46%
COc1ccc(NS(=O)(=O)c2cccc(C(=O)Nc3ccc(C#N)cc3)c2)cc1 [I-1006, N-(4-cyanophenyl)-3-(N-(4-methoxyphenyl)sulfamoyl)benzamide]	42%
O=C(Nc1cccc(OC(F)F)c1)c1cccc(S(=O)(=O)Nc2cccc(C(F)(F)F)c2)c1 [I-1007, N-(3-(difluoromethoxy)phenyl)-3-(N-(3-(trifluoromethyl)phenyl)sulfamoyl)benzamide]	33%
Cc1ccc(NS(=O)(=O)c2cccc(C(=O)Nc3cccc(S(N)(=O)=O)c3)c2)cc1 [I-1008, N-(3-sulfamoylphenyl)-3-(N-(p-tolyl)sulfamoyl)benzamide]	29%
Cc1n[nH]c(C)c1CCC(=O)Nc1cccc(NC(=O)c2cccc(S(=O)(=O)Nc3ccc(Br)cc3)c2)c1 [I-1009, 3-(N-(4-bromophenyl)sulfamoyl)-N-(3-(3-(3,5-dimethyl-1H-pyrazol-4-yl)propanamido)phenyl)benzamide]	26%

tested on: plant pathogenic fungi (Zymoseptoria tritici strains, Microdochium nivale); assay: In vitro combination assay (Method 2), overall comparison with Roux Compound 13; assay type: cell-based; settings: azoxystrobin, fluxapyroxad, desthio prothioconazole; three fungal strains
Procedure: Method 2: In Vitro Assessment of Combination Activity
Selected compounds were assessed in combination with fungicides against a range of commercially important plant pathogenic fungi.
The test was conducted as follows. A fungicide was applied to a fungal plant pathogen at a rate slightly below that at which it gave any control, in combination with a suitable dose of the test compound. The test compound was recorded as active if control of the pathogen was observed.
In more detail, the test was conducted as follows. For each combination of fungicide, pathogen and test compound, the following wells were used. Well 1 contained a fungal pathogen growing on agar, and a fungicide at a rate just below that at which it gave any control of the pathogen. Well 2 was the same as Well 1, except that the test compound was also added at Rate 1. Well 3 was the same as Well 2, except that the test compound was added at Rate 2, where Rate 2 was higher than Rate 1. Finally, as a benchmark, Well 4 was the same as Well 1, except that it contained the fungicide at a higher rate, at which it gave partial control of the pathogen. Each of the Wells 1 to 4 were run in duplicate, giving a total of 8 wells for each combination of fungicide, pathogen and test compound. For each well, after a suitable period of incubation, a visual assessment of the % control of the pathogen by the fungicide was made.
The following fungicides were used in this assay: azoxystrobin, fluxapyroxad, and desthio prothioconazole. The following fungal pathogens were used in this assay: First, a strain of Zymoseptoria tritici with a reduced susceptibility to strobilurin fungicides; second a strain of Zymoseptoria tritici with a reduced susceptibility to SDHI fungicides (i.e., those that inhibit succinate dehydrogenase); and third, Microdochium nivale.

Structure (SMILES)	enhancer activity in the combination assay compared with Roux Compound 13
Cc1ccccc1NS(=O)(=O)c1cc(C(=O)Nc2cccc([N+](=O)[O-])c2)ccc1Cl [I-2, 4-chloro-N-(3-nitrophenyl)-3-(N-(o-tolyl)sulfamoyl)benzamide]	superior enhancer activity than Roux Compound 13
N#Cc1cccc(NC(=O)c2cccc(S(=O)(=O)Nc3ccc(Br)cc3)c2)c1 [I-16, 3-(N-(4-bromophenyl)sulfamoyl)-N-(3-cyanophenyl)benzamide]	superior enhancer activity than Roux Compound 13
COc1ccc(NC(=O)c2cccc(S(=O)(=O)Nc3ccc(Br)cc3)c2)cc1 [I-18, 3-(N-(4-bromophenyl)sulfamoyl)-N-(4-methoxyphenyl)benzamide]	superior enhancer activity than Roux Compound 13
O=C(Nc1ccc(Br)cc1)c1cccc(S(=O)(=O)Nc2cc(C(F)(F)F)ccc2Cl)c1 [I-178, N-(4-bromophenyl)-3-(N-(2-chloro-5-(trifluoromethyl)phenyl)sulfamoyl)benzamide]	superior enhancer activity than Roux Compound 13
O=C(Nc1cccc(Br)c1)c1cccc(S(=O)(=O)Nc2ccc3c(c2)OCO3)c1 [I-186, 3-(N-(benzo[d][1,3]dioxol-5-yl)sulfamoyl)-N-(3-bromophenyl)benzamide]	superior enhancer activity than Roux Compound 13

Reference: patent US12685312B2, “Sulfonamide apyrase inhibitors” (Texas Crop Science, Inc., priority 2022, dated 2026)
